Results from PubChem BioAssay AID2423 (Broad Institute, 2010).
Several values for one entry are separate records, joined by “and”; a condition that tells them apart may be missing. Equal values may be shown once. Records with an inconclusive call do not appear. Activity calls are given as the source filed them. The rule behind the calls is not given here.

System: C. albicans CaCi-8 + fluconazole, Alamar Blue growth, 48 h
Experiment: resistant C. albicans growth inhibition with fluconazole, dose response, CaCi-8 strain, Alamar Blue fluorescence (AID 2423)

Row | Structure (SMILES) | EC50
1 | CCOC(=O)c1nc(NNC(=O)c2ccc([N+](=O)[O-])cc2)sc1C | 0.981 µM
2 | CCCn1nc([N+](=O)[O-])c(C(C#N)c2nc3ccccc3s2)c(Cl)c1=O (centres undefined) | 1.4 µM
3 | Nc1ncnc2c1ncn2[C@@H]1O[C@H](CO)C[C@H]1O | > 15 µM (inactive)
4 | O=[N+]([O-])c1cccnc1S(=O)(=O)c1ccccc1 | 0.865 µM
5 | CC1CCN(Cc2c(C(=O)N/N=C/c3cc(Cl)ccc3O)nnn2-c2nonc2N)CC1 | 0.693 µM
6 | CO/N=C/c1ccc(N2CCN(C(=O)c3ccc(C)cc3)CC2)c([N+](=O)[O-])c1 | 2.1 µM
7 | CN(C)S(=O)(=O)Oc1cccc(C(=O)Nc2ccc(Cl)cc2)c1 | 2.97 µM
8 | C=CC(C)(C)c1c(O)c(CC=C(C)C)c(O)c2c(=O)c3ccc(O)c(O)c3oc12 | 3.41 µM
9 | Cc1nn(CC(=O)NCCCc2ccccc2)c(C)c1[N+](=O)[O-] | > 15 µM (inactive)
10 | COc1ccccc1NC1=C(N2CCCCC2)C(=O)c2ccccc2C1=O | 0.245 µM
11 | COc1cccc(/C=N/Nc2nccnc2Cl)c1O | 1.8 µM
12 | c1cnc2c(c1)ccc1cccnc12 | 10.5 µM and 9.35 µM
13 | Cc1ccsc1C(=O)OCC(=O)Nc1nnc(-c2ccccc2)o1 | 3.12 µM
14 | CCN(CC)c1ccc(/C=N/Nc2nc3ccccc3[nH]2)c(O)c1 | 0.621 µM
15 | Cc1ccc(C(=O)NCc2ccco2)cc1S(=O)(=O)Nc1cccc(Cl)c1 | > 15 µM (inactive)
16 | CSc1ncc(Cl)c(C(=O)C(C#N)c2nc3c(C)cc(C)cc3c(=O)[nH]2)n1 (centres undefined) | > 16 µM (inactive)
17 | Cc1nnc(NC(=O)CSc2ncnc3c2cnn3-c2ccccc2C)s1 | 0.446 µM
18 | Cc1cc([N+](=O)[O-])c2ccccc2[n+]1[O-] | 0.195 µM
19 | Cc1cc(Sc2nc(N)ncc2[N+](=O)[O-])ncn1 | 2.15 µM
20 | Cc1ccc(C2(c3noc(CN4CCC(c5ccncc5)CC4)n3)CCCC2)cc1 | > 15 µM (inactive)
21 | Cc1cc(NC(c2ccc(Cl)cc2)c2ccc3cccnc3c2O)no1 (centres undefined) | 0.598 µM
22 | c1ccc2c(c1)OCC(CNc1ncnc3sccc13)O2 (centres undefined) | 4.01 µM
23 | O=C(Nc1nc(=O)c2ccccc2s1)c1ccccc1 | > 15 µM (inactive)

Row | Structure (SMILES) | EC50
24 | O=c1cnnc(N/N=C/c2ccccn2)[nH]1 | 0.875 µM
25 | O=C(NCc1cc([N+](=O)[O-])ccc1O)c1cccnc1Sc1ccccc1Cl | 0.148 µM
26 | Cn1cc(C(c2ccccn2)c2cn(C)c3ccccc23)c2ccccc21 | 0.185 µM
27 | O=C(NNC(=S)Nc1ccc(Cl)c(Cl)c1)c1ccccn1 | 1.13 µM
28 | COCc1nnc(NC(=O)c2ccc(S(=O)(=O)N3CCCc4ccccc43)cc2)o1 | 10.5 µM
29 | CCCCCCC[n+]1ccc(-c2cc[n+](CCCCCCC)cc2)cc1 | < 0.12 µM
30 | Cc1cccc(NCc2ccc(O)c3ncccc23)c1C | 11.8 µM
31 | O=C(/C=C/c1cccc(Cl)c1)c1nc2ccccc2[nH]1 | 2.58 µM
32 | CCCc1cc(=O)[nH]c(SCc2csc(-c3ccccc3)n2)n1 | 1.39 µM
33 | Cc1ccccc1/C=C1\SC(=S)N(/N=C/c2cc([N+](=O)[O-])ccc2O)C1=O | 4.06 µM
34 | Cc1ccc(C)c(N=Nc2ccc(O)c3ncccc23)c1 | 0.716 µM
35 | O=C(NCc1ccco1)c1ccccc1NS(=O)(=O)c1ccc(Br)s1 | > 16 µM (inactive)
36 | CCn1nc(/C=C/c2ccccc2)nc2c(=O)n(C)c(=O)nc1-2 | 0.323 µM
37 | Cc1nc(SCc2ccc(Cl)c(Cl)c2)ncc1C(=O)O | > 15 µM (inactive)
38 | O=C(/C=C/c1cc(Br)ccc1O)c1ccco1 | 0.458 µM
39 | CCCCCCOC(=O)C[N+](C)(C)CCOC1CC2CCC1(C)C2(C)C (centres undefined) | 1.16 µM
40 | Cc1ccc(-n2c(-c3ccccc3)c[n+]3c2CCC3)cc1 | 8.58 µM
41 | CCNC(=S)NNC(=O)c1cc(-c2ccccc2C)nc2ccccc12 | 1.41 µM
42 | O=CNCCCc1nc2ccccc2n1Cc1cccc2ccccc12 | 3.52 µM
43 | S=C(Nc1ccc(Cl)cc1)c1nc2ccccc2[nH]1 | 1.64 µM
44 | Nc1c2c(nc3sc4c(c13)CCCCC4)CCCCC2 | 5.55 µM
45 | COc1cc(OC)c2cc(C(=O)N/N=C/c3ccccc3O)[nH]c2c1 | 1.24 µM
46 | O=C(Nc1ccc(OCc2ccccc2Cl)cc1)c1cccnc1 | 3.71 µM

Row | Structure (SMILES) | EC50
47 | COc1ccc(-n2c(=O)c3c4c(sc3n3c(=S)[nH]nc23)CCCC4)cc1 | 0.744 µM
48 | CC1(C)CC(N2CCN(Cc3ccccc3)CC2)=CC(=[N+]2CCCCC2)C1 | 3.35 µM
49 | [O-][n+]1cccc2c(Br)cc(Br)c(O)c21 | 0.652 µM
50 | CCc1ccc(-c2csc3ncn(Cc4ccc(C(=O)O)cc4)c(=O)c23)cc1 | 0.954 µM
51 | CSc1ccc(C2c3[nH]c4ccccc4c3CCN2C(=O)c2ccnn2C)cc1 (centres undefined) | 2.35 µM
52 | COc1cccc(COc2cc3ccccc3nc2C)c1 | 1.05 µM
53 | O=[N+]([O-])c1ccc(C2[C@H]3C(c4ccccc4)=NC4(CCCC4)N23)cc1 (some centres undefined) | > 15 µM (inactive)
54 | Cc1cc(C)c2ccc(N)nc2c1O | 14.1 µM
55 | Oc1c(C(Nc2nccs2)c2ccc(C(F)(F)F)cc2)ccc2cccnc12 (centres undefined) | 0.601 µM
56 | O=[N+]([O-])c1ccc(O)c(/C=N/Nc2ccc(Cl)nn2)c1 | 1.8 µM
57 | Oc1ccc(CN2CCC(Cc3ccccc3)CC2)c2cccnc12 | 1.34 µM
58 | Brc1ccc(-c2nnc3sc(CN4CCN(c5ccccc5)CC4)cn23)cc1 | 0.288 µM
59 | O=c1oc2ccccc2c(O)c1Cc1cc(Cl)c2cccnc2c1O | 2.75 µM
60 | CCn1c(=O)n(CC(=O)N2CCN(c3ccccc3F)CC2)c(=O)c2ccccc21 | > 16 µM (inactive)
61 | CC(=O)Nc1ccc(Nc2c3ccccc3nc3ccccc23)cc1 | 5.98 µM
62 | CN(C)CCCNC(=O)c1ccc(-c2nc(-c3ccc(Cl)cc3)cs2)cc1 | 2.61 µM
63 | Cc1cc(OCC(=O)NNC(=S)NC(=O)c2cccs2)ccc1Cl | 1.66 µM
64 | Nc1nonc1C(=O)N/N=C/c1cc(Br)ccc1O | 9.34 µM
65 | COC(=O)[C@@H]1CCCN1Cc1nc(Cc2ccccc2F)no1 | > 16 µM (inactive)
66 | CCNc1nc(NC(C)C)nc(NC(C)(C)C)n1 | 1.4 µM
67 | Cc1ccc(SCCC(=O)N/N=C/c2ccccc2O)cc1 | 14 µM
68 | Cc1nn(-c2ccccc2)c(C)c1C(=O)OC/C(O)=C(\C#N)c1nc2ccccc2[nH]1 | 1.03 µM
69 | COc1cccc(/C=N/NC(=O)c2[nH]nc3c2CCc2ccccc2-3)c1O | 0.857 µM

Row | Structure (SMILES) | EC50
70 | O=[N+]([O-])c1nn(-c2ccc(Cl)cc2)n(O)c1=NCc1cccnc1 | 1.83 µM
71 | CCOC(=O)N=Nc1c2ccccc2c2nc3no[nH]c3nc12 | > 15 µM (inactive)
72 | Cc1cccc(NC2=NC(=S)N(c3cccc(C(=O)O)c3)C23CCCCC3)c1 | 0.772 µM
73 | O=C(COc1ccccc1)Nc1nnc(-c2ccc3c(c2)CCCC3)o1 | 0.727 µM
74 | CC(=O)c1cccc(NC(=S)NC(=O)c2ccc(C)cc2)c1 | 3.85 µM
75 | COc1ccc(C)cc1Nc1n[n+](-c2ccccc2)c(-c2ccc(N(C)C)cc2)s1 | 3.71 µM
76 | CN(C)S(=O)(=O)Oc1cccc(C(=O)Nc2cccc(Cl)c2)c1 | 1.35 µM
77 | O=C(O)c1ccc(-c2nc(-c3ccc(Cl)cc3)cs2)cc1 | 3.42 µM
78 | CC12CCC(C(=O)Nc3ncc([N+](=O)[O-])s3)(OC1=O)C2(C)C (centres undefined) | > 16 µM (inactive)
79 | Cc1ccc(OCC(=O)NNC(=S)NC(=O)C2CC2)c(C)c1 | 0.83 µM
80 | O=Nc1c(-c2cccc([N+](=O)[O-])c2)nc2ncccn12 | 0.828 µM
81 | Oc1c(C(Nc2cccc(C(F)(F)F)c2)c2ccncc2)ccc2cccnc12 (centres undefined) | 2.44 µM
82 | CNC(=S)/N=C/NOCc1ccc(Cl)cc1Cl | 0.46 µM
83 | N=C(N)c1ccc(/C=C/c2ccc(C(=N)N)cc2O)cc1 | > 15 µM (inactive)
84 | C=CCNC(=S)N/N=C/c1ccc(-c2ccc(OC)cc2)o1 | 4 µM
85 | O=C(Nc1ccccc1O)c1ccccc1O | 0.784 µM
86 | C=C(C)COc1ccc(-c2n[nH]c(C)c2-c2ccccc2)c(O)c1 | 4.29 µM
87 | NC(=S)n1[nH]c(-c2ccccc2)c(N=Nc2ccccc2C(=O)N2CCOCC2)c1=O | 8.43 µM
88 | Cc1ccc(C(=O)O/N=C/c2c(N3CCOCC3)n(C)c3ccccc23)cc1 | 0.623 µM
89 | CCCCC(=O)NC(c1ccco1)c1cc(Cl)c2cccnc2c1O (centres undefined) | 0.625 µM
90 | N=C1/C(=C/c2cccn2-c2ccc([N+](=O)[O-])cc2)C(=O)N=C2SC=CN12 | > 16 µM (inactive)
91 | COc1ccc(C(NC(=O)C(C)C)c2ccc3cccnc3c2O)cc1 (centres undefined) | 0.802 µM
92 | Cc1ccc(Nc2nc(CSc3nnc(-c4ccncc4)n3-c3ccccc3C)cs2)cc1 | > 16 µM (inactive)

Row | Structure (SMILES) | EC50
93 | COc1ccc(C2N=C(Nc3ccc(C)cc3)Nc3nc(C)cc(=O)n32)cc1 (centres undefined) | > 16 µM (inactive)
94 | Cn1c(=O)n(CC#N)c2ccccc21 | 14.8 µM
95 | O=C(NCc1ccco1)c1sc(=S)n2c1[nH]c(=O)c1ccccc12 | 0.212 µM
96 | O=C(CCNC(=O)c1ccc(Br)cc1)Nc1nccs1 | > 15 µM (inactive)
97 | N#C/C(=C\c1ccc(OC(=O)c2cccs2)cc1)c1nc2ccccc2[nH]1 | 3.21 µM
98 | O=C(O/N=C1/CCSc2ccccc21)c1ccc(F)cc1 | > 15 µM (inactive)
99 | O=C(NC(=S)NNC(=O)c1cnccn1)c1ccc(Cl)cc1 | 3.42 µM
100 | O=C(Nc1nnc(-c2ccc(F)cc2)o1)c1cccc([N+](=O)[O-])c1 | 1.01 µM
101 | COC(=O)c1ccc(COc2ccc(/C=C(\C#N)c3nc4ccccc4[nH]3)cc2OC)o1 | 2.62 µM
102 | O=[N+]([O-])c1ccc(C(=Nc2cccc3ccccc23)N2CCOCC2)cc1 | 1.35 µM
103 | Cc1ccnc(Sc2ccc([N+](=O)[O-])cc2[N+](=O)[O-])n1 | 0.964 µM
104 | COc1cc(NC(=O)c2ccccc2NS(=O)(=O)c2ccc(Cl)s2)cc(OC)c1 | > 16 µM (inactive)
105 | O=C(CN1C(=O)/C(=C/c2ccccc2)SC1=S)NNC(=O)c1ccccc1O | > 16 µM (inactive)
106 | COc1ccc(NC(=O)c2cc([N+](=O)[O-])ccc2O)cc1 | 3.92 µM
107 | CS/C(=N\S(=O)(=O)c1cccs1)Nc1ccc(F)c(Cl)c1 | 1.89 µM
108 | CCOC(=O)C(CC)/C(C)=N\NC(=O)c1ccccc1O (centres undefined) | 7.82 µM
109 | Cc1nc2ccc(NC(=O)COc3ccccc3)cc2s1 | 5.37 µM
110 | CCOc1cc(S(=O)(=O)NCc2ccccc2)c(OCC)cc1-n1cnnn1 | > 15 µM (inactive)
111 | CCc1ccc(/C=C2/SC(=S)N(CCCC(=O)Nc3ccccc3C(=O)O)C2=O)cc1 | 0.982 µM
112 | Oc1c(C(c2ccccn2)N2CCC(Cc3ccccc3)CC2)cc(Cl)c2cccnc12 (centres undefined) | 1.88 µM
113 | Nc1[nH]c(=O)ncc1F | 0.711 µM
114 | Nc1n[nH]c(-c2cccc([N+](=O)[O-])c2)n1 | > 15 µM (inactive)
